Reference: US20230202989A1, “COMPOUNDS” (JANSSEN PHARMACEUTICA NV, priority 2020, published 2023)

Experiments:
IL-1β = assay: PBMC assay: inhibition of IL-1β release after LPS stimulation (MSD); assay type: cell-based; conditions: Homo sapiens, PBMC, 6 h, human PBMCs, 100 ng/ml LPS for 6 hrs, MSD, 96 well plates; read-out: IL1β IC50
Method: Peripheral venous blood s collected from health individuals and human peripheral blood mononuclear cells (PBMCs) ere isolated from blood by Ficoll Histopaque (Sigma-Aldrich, A0561) density gradient centrifugation. After isolation, PBMCs were stored in liquid nitrogen for later use. Upon thawing, PBMC cell viability was determined in growth medium (RPMI media supplemented with 10% fetal bovine serum, 1% Pen-Strep and 1% L-glutamine). […] PBMCs were added at a density of 7.5×10^4 cells per well and incubated for 30 min in a 5% CO2 incubator at 37° C. LPS stimulation was performed by addition of 100 ng/ml LPS (final concentration, Invivogen, tlrl-smlps) for 6 hrs followed by collection of cellular supernatant and the analysis of IL-1β (μM) and TNF cytokines levels (μM) via MSD technology according to manufacturers' guidelines (MSD, K151A0H).
(§1) The IC50 values (for IL-1β) and EC50 values (TNF) were obtained on compounds of the invention/examples, and are depicted in the following table: […]

TNF = assay: PBMC assay: TNF cytokine levels after LPS stimulation (MSD); assay type: cell-based; conditions: Homo sapiens, PBMC, 6 h, human PBMCs, 100 ng/ml LPS for 6 hrs
Method: Peripheral venous blood s collected from health individuals and human peripheral blood mononuclear cells (PBMCs) ere isolated from blood by Ficoll Histopaque (Sigma-Aldrich, A0561) density gradient centrifugation. After isolation, PBMCs were stored in liquid nitrogen for later use. Upon thawing, PBMC cell viability was determined in growth medium (RPMI media supplemented with 10% fetal bovine serum, 1% Pen-Strep and 1% L-glutamine). Compounds were spotted in a 1:3 serial dilution in DMSO and diluted to the final concentration in 30 μl medium in 96 well plates (Falcon, 353072). PBMCs were added at a density of 7.5×10^4 cells per well and incubated for 30 min in a 5% CO2 incubator at 37° C. LPS stimulation was performed by addition of 100 ng/ml LPS (final concentration, Invivogen, tlrl-smlps) for 6 hrs followed by collection of cellular supernatant and the analysis of IL-1β (μM) and TNF cytokines levels (μM) via MSD technology according to manufacturers' guidelines (MSD, K151A0H).
as §1

Row | Compound | IC50 (IL-1β) [nM] | EC50 (TNF) [nM]
1 | CCc1nn(CC(=O)Nc2ccc3nncn3c2)c(=O)c2ccc(C3CC3)cc12 [Final Cpd 3] | 124 | 14900
2 | COC(C)c1nn(CC(=O)N[C@H]2C[C@@](C)(O)C2)c(=O)c2ccc(Br)cc12 (stereo partly drawn) [X-1018] | 832 | > 20000
3 | CCc1nn(CC(=O)N[C@H]2C[C@@](C)(O)C2)c(=O)c2ccc(C(F)F)cc12 [Final Cpd 17] | 540 | > 10000
4 | CC(C)c1ccc2c(=O)n(CC(=O)N[C@H]3C[C@@](C)(O)C3)nc(C(C)C)c2c1 [Final Cpd 34] | < 120 | > 10000
5 | CC(C)c1nn(CC(=O)N[C@H]2C[C@@](C)(O)C2)c(=O)c2ccc(Br)cc12 [Final Cpd 37] | < 25 | > 10000
6 | CC(C)c1nn(CC(=O)Nc2ccc(=O)n(C)n2)c(=O)c2ccc(C(F)(F)F)cc12 [Final Cpd X33] | 252 | > 20000
7 | CC(c1nn(CC(=O)Nc2ccc3nncn3c2)c(=O)c2ccc(C(F)(F)F)cc12)C(F)(F)F (stereo not drawn) [Final Cpd X59] | 561 | > 20000
8 | C[C@]1(O)C[C@@H](NC(=O)Cn2nc(C(F)F)c3cc(C(F)(F)F)ccc3c2=O)C1 [Final Cpd X36] | 304 | > 20000
9 | CC(C)c1nn(CC(=O)Nc2ccc3nncn3n2)c(=O)c2ccc(C(C)(C)F)cc12 [X-1010] | 17 | 3110
10 | O=C(Cn1nc(C2(F)CC2)c2cc(C(F)(F)F)ccc2c1=O)Nc1ccc2nncn2c1 [Final Cpd X142] | 4740 | > 20000
11 | CCc1nn(CC(=O)Nc2ccncn2)c(=O)c2ccccc12 [Final Cpd 12] | > 20000 | > 20000
12 | CC(C)c1ccc2c(=O)n(CC(=O)Nc3cn4cnnc4cn3)nc(C(C)C)c2c1 [X-1086] | 137 | > 20000
13 | CCN1C[C@H](NC(=O)Cn2nc(C(C)C)c3cc(C(F)(F)F)ccc3c2=O)CC(F)(F)C1 [Final Cpd X117] | 2110 | > 20000
14 | CCc1nn(CC(=O)Nc2c(-c3ccnc(OC)c3)ccc3c2CCC3)c(=O)c2ccc(Br)cc12 [X-1013] | > 20000 | > 20000
15 | CC(C)c1nn(CC(=O)Nc2ccc3nncn3c2)c(=O)c2ccc(C(C)(F)F)cc12 [X-1063] | 16 | 1850
16 | Cc1cc(NC(=O)Cn2nc(C(C)C)c3cc(C(F)(F)F)ccc3c2=O)cn2ccnc12 [Final Cpd X92] | 970 | > 20000
17 | CC(C)c1nn(CC(=O)Nc2ccc3c(ncn3C)n2)c(=O)c2ccc(C(F)(F)F)cc12 [Final Cpd X160] | 13400 | > 20000
18 | CC(C)c1nn(CC(=O)Nc2ccc3nnc(Cl)n3n2)c(=O)c2ccc(C(F)(F)F)cc12 [Final Cpd X63] | 600 | > 20000
19 | CC(=O)c1nn(CC(=O)Nc2ccc3nncn3c2)c(=O)c2ccc(C(F)(F)F)cc12 [Final Cpd X58] | 551 | > 20000
20 | CC(C)c1nn(CC(=O)N[C@H]2C[C@@H](O)C2)c(=O)c2ccc(C(F)(F)F)cc12 [Final Cpd X67] | 679 | > 20000
21 | CO[C@H]1CC[C@H](NC(=O)Cn2nc(C(C)C)c3cc(C(F)(F)F)ccc3c2=O)CC1 [Final Cpd X177] | > 20000 | > 20000
22 | CC(C)c1nn(CC(=O)N[C@H]2CN(CC[C@H](C)O)CC[C@H]2O)c(=O)c2ccc(C(F)(F)F)cc12 [Final Cpd X81] | 879 | > 20000
23 | CC(C)c1nn(CC(=O)N[C@@H]2CCc3nncn3C2)c(=O)c2ccc(C(F)(F)F)cc12 [Final Cpd X106] | 1610 | > 20000
24 | CC(C)c1nn(CC(=O)N[C@H]2CC[C@H]2O)c(=O)c2ccc(C(F)(F)F)cc12 (single isomer, unassigned) [Final Cpd X124] | 2760 | > 20000
25 | CC(C)c1nn(CC(=O)Nc2ccc3cnn(C)c3c2)c(=O)c2ccc(C(F)(F)F)cc12 [Final Cpd X114] | 1940 | > 20000
26 | Cn1nc(NC(=O)Cn2nc(C3CC3)c3cc(C(F)(F)F)ccc3c2=O)ccc1=O [Final Cpd X93] | 1010 | > 20000
27 | CCc1nn(CC(=O)N[C@H]2C[C@@](C)(O)C2)c(=O)c2ccc(C(F)(F)F)cc12 [Final Cpd 19] | 140 | > 10000

Row | Compound | IC50 (IL-1β) [nM] | EC50 (TNF) [nM]
28 | COC(C)c1nn(CC(=O)Nc2ccncn2)c(=O)c2ccc(Br)cc12 (stereo not drawn) [X-1016] | 819 | > 20000
29 | CC(C)Cc1nn(CC(=O)Nc2ccc3nncn3c2)c(=O)c2ccc(C(F)(F)F)cc12 [Final Cpd X144] | 4940 | > 20000
30 | CO[C@]1(C)C[C@H](NC(=O)Cn2nc(C(C)C)c3cc(C(F)(F)F)ccc3c2=O)C1 [Final Cpd X29, 2-(4-isopropyl-1-oxo-6-(trifluoromethyl)phthalazin-2(1H)-yl)-N-((1s,3s)-3-methoxy-3-methylcyclobutyl)acetamide] | 216 | > 20000
31 | CC(C)c1nn(CC(=O)Nc2ccc(=O)n(C)c2)c(=O)c2ccc(C(C)(F)F)cc12 [X-1066] | 156 | 6780
32 | CCN1CC[C@H](O)[C@H](NC(=O)Cn2nc(C(C)C)c3cc(Br)ccc3c2=O)C1 (stereo in doubt) [X-1083] | 18 | > 20000
33 | CC(C)c1nn(CC(=O)N[C@@H]2CCC[C@H]2O)c(=O)c2ccc(C(F)(F)F)cc12 [Final Cpd X86] | 915 | > 20000
34 | CCN1CC[C@H](NC(=O)Cn2nc(C(C)C)c3cc(C(F)(F)F)ccc3c2=O)[C@H](O)C1 (single isomer, unassigned) [Final Cpd X147] | 5940 | > 20000
35 | CCc1nn(CC(=O)Nc2ccc3nncn3c2)c(=O)c2ccc(Br)cc12 [Final Cpd 1] | 115 | > 20000
36 | O=C(Cn1nc(C2CC2)c2cc(C(F)(F)F)ccc2c1=O)N[C@H]1CN(C2CC2)CC[C@H]1O [Final Cpd X45] | 384 | > 20000
37 | O=C(Cn1nc(C2CC2)c2cc(Br)ccc2c1=O)Nc1ccc2nncn2n1 [X-1001] | 224 | > 20000
38 | COC(C)c1ccc2c(=O)n(CC(=O)Nc3ccc4nncn4c3)nc(C(C)C)c2c1 (stereo not drawn) [X-1054] | 539 | 18600
39 | CC(C)c1nn(CC(=O)Nc2ccc3nc(C#N)cn3c2)c(=O)c2ccc(C(F)(F)F)cc12 [Final Cpd X97] | 1120 | > 20000
40 | CC(C)c1ccc2c(=O)n(CC(=O)Nc3ccc4nncn4n3)nc(C(C)C)c2c1 [X-1009] | 45 | 2830
41 | CC(C)c1nn(CC(=O)Nc2ccc(=O)n(C)n2)c(=O)c2ccc(Br)cc12 [X-1036] | 141 | > 20000
42 | CC(C)c1nn(CC(=O)Nc2ccnnc2)c(=O)c2ccc(C(C)(F)F)cc12 [X-1064] | 533 | 18900
43 | CC(C)c1nn(CC(=O)Nc2nc(Cl)c3nc[nH]c3n2)c(=O)c2ccc(C(F)(F)F)cc12 [Final Cpd X11, N-(6-chloro-9H-purin-2-yl)-2-(4-isopropyl-1-oxo-6-(trifluoromethyl)phthalazin-2(1H)-yl)acetamide] | 105 | > 20000
44 | CC(C)c1nn(CC(=O)Nc2ccc3nnn(C)c3c2)c(=O)c2ccc(C(F)(F)F)cc12 [Final Cpd X49] | 400 | 9700
45 | Cc1nccc(NC(=O)Cn2nc(C(C)C)c3cc(C4(F)CC4)ccc3c2=O)c1F [X-1075] | 153 | > 20000
46 | CC(C)c1nn(CC(=O)Nc2ccc3nncn3c2)c(=O)c2ccc(Cl)cc12 [X-1029] | 41 | > 20000
47 | O=C(Cn1nc(C2CC2)c2cc(Cl)ccc2c1=O)Nc1ccc2nncn2n1 [X-1002] | 453 | > 20000
48 | CC(C)c1nn(CC(=O)Nc2ccc3nnnn3n2)c(=O)c2ccc(C(F)(F)F)cc12 [Final Cpd X18] | 156 | > 20000
49 | CCc1ccc2c(=O)n(CC(=O)N[C@H]3C[C@@](C)(O)C3)nc(CC)c2c1 [Final Cpd 22] | 340 | > 10000
50 | CC(C)c1nn(CC(=O)Nc2ccc3nn(C)cc3c2)c(=O)c2ccc(C(F)(F)F)cc12 [Final Cpd X137] | 3860 | > 20000
51 | CC(C)c1nn(CC(=O)N[C@H]2C[C@H](O)C2)c(=O)c2ccc(C(F)(F)F)cc12 [Final Cpd X94] | 1070 | > 20000
52 | CC(C)c1nn(CC(=O)NC2CCc3nncn3C2)c(=O)c2ccc(C(F)(F)F)cc12 (stereo not drawn) [Final Cpd X89] | 924 | > 20000
53 | CC(C)c1nn(CC(=O)Nc2ncc3nc[nH]c3n2)c(=O)c2ccc(C(F)(F)F)cc12 [Final Cpd X1, 2-(4-isopropyl-1-oxo-6-(trifluoromethyl)phthalazin-2(1H)-yl)-N-(9H-purin-2-yl)acetamide] | – | > 20000
